Data set [1] can be described thus: Drug-drug interaction study with vaginal miconazole formulations. The settings on record: for overall increase in exposure: with 1 day or 3-day oil-based miconazole suppository; for change in exposure from the vaginal system: with water-based vaginal miconazole cream. It is filed as in vivo. From the text:
However, the use of either the 1 day or the 3-day oil-based miconazole suppository was associated with an overall increase in exposure up to 67% for EE and 32% for SA. Considering the potential long-term effect on vaginal system performance, concurrent use of oil-based vaginal suppositories should not occur with the system's use. If there is a need to treat a vaginal condition, water-based vaginal cream or oral therapy may be used concurrently with the vaginal system.

The nature of data set [2]: Recoverable SA and EE after storage. The following applies: for amount recoverable from the vaginal system: over 24 months of storage at 25° C. and 60% relative humidity. It is filed as physicochemical. How it is done: This was quite surprising as a similar trend was not observed during long-term stability studies on the cores before assembly.
• Diluent: methanol/water 58/42 v/v • Dried NES and EE before weighing (100-105° C. 3 h) • EE stock solution: Dissolved 25.0 mg of EE and diluted to 250.0 mL with methanol (duplicates, EE1 and EE2) • NES stock solution: Dissolved 50.0 mg of NES and diluted to 100.0 mL with methanol (duplicates, NES1 and NES2) • Standard solutions: • S1: Diluted 5.0 mL of NES1 and 4.0 mL of EE1 to 50.0 mL with diluent • S2: Diluted 6.0 mL of NES2 and 5.0 mL of EE2 to 50.0 mL with diluent • S3: Diluted 8.0 mL of NES1 and 7.0 mL of EE1 to 50.0 mL with diluent • S4: Diluted 10.0 mL of NES2 and 9.0 mL of EE2 to 50.0 mL with diluent • System suitability solution (SST solution): Diluted 5.0 mL acetone+7.0 mL NES1+6.0 mL EE1 to 50.0 mL with diluent.
Rings were cut into 8 pieces and each piece was divided lengthwise then transferred to an Erlenmeyer flask. • 140 mL of acetone (weight of flask was noted before and after acetone addition) was added to the flask.
• analytical column: Discovery C8, 5 μm, 150×4.6 mm (Supelco) • pre-column: Supelguard, Discovery C8, 5 μm, 20×4.0 mm (Supelco) • stationary phase: endcapped C8 (5 μm particle size) USP L7 • temperature: 30° ° C. Mobile phase: methanol/water 58/42, isocratic elution Flow rate: 1.2 mL/min Detection (assay): NES UV 240 nm, EE UV 280 nm Detection (identity): PDA (photodiode array detector) scanning 220-310 nm, NES 240 nm, EE 280 nm
Run time: 15 min System suitability: SST solution • Area precision (n=5): RSD (%)≤2.0 • Peak tailing (T): 0.8≤T≤1.5 • Blank injections: No interfering peaks Retention times: EE approximately 7 min and NES approximately 9 min Results Assay: Report the average value of three different rings and express as mg EE/ring and mg NES/ring. Results Content uniformity: Calculate the average value of ten different rings. Report with or without remarks according the guidelines outlined in the US Pharmacopeial Convention, incorporated herein by reference, and in particular USP <905>. […]

Data set [3] in a line: PK study in females with BMI <25 vs BMI >25. It is filed as in vivo, human. The settings on record: 18 females BMI <25 vs 21 females BMI >25. The source says: The vaginal system described herein has not been adequately evaluated in females with a body mass index of >29 kg/m2. […] Higher body weight associates with lower systemic exposure of SA and EE.
The nature of data set [4]: PK sub-study of the vaginal system over 13 product-use cycles (21 days in/7 days out), serum SA and EE. It is filed as in vivo, human. More on the design: AUC0-21 day / AUC0-1 day: concentration or dose not given beside the values. How it is done:
The pharmacokinetics (PK) of the vaginal system described herein were determined during studies related to the prior approved use (i.e., 13 product-use cycles comprising a 21-day “product-in” period and a 7-day “product-out” period). Studies were conducted in 39 women who used the system for up to the 13 product-use cycles. […] Over subsequent product-use cycles, the peak serum concentrations of SA and EE declined.
During a phase 3 trial of the vaginal ring system, three centers participated in a PK sub-study. The PK sub-study was an open-label, multicenter, non-randomized phase 1 study evaluating the PK and pharmacodynamics (PD) of a self-administered vaginal ring system. Enrolled women were healthy, aged 18-38 years, who had regular cycles of 28±7 days and were sexually active with no intention of becoming pregnant for the following 13 months. Exclusion criteria were those typical for oral contraceptive assessments. Women were not permitted to use hormonal contraceptives (other than the study vaginal ring) or vaginal lubricants that could have interfered with steroid absorption during the study.
Women were instructed to use the SA/EE vaginal ring system for 13 consecutive cycles following a 21-days-in and 7-days-out regimen, with the initial ring insertion (day 1 of cycle 1) under investigator supervision at the study clinic. […] In the PK substudy, blood samples from each woman were collected 8 times (see below) per assessed cycles (1, 3, and 13) as per the protocol.
For serum SA and EE measurements, blood samples were collected on treatment days 1-5, 8, 15, and 22 during cycles 1, 3, and 13 with the serum stored at −20° C. Steroid concentrations were determined at each time point using a validated gas chromatography/tandem mass spectrometry (GC-MS/MS; Taylor Technology, Princeton, NJ); the lower limits of quantification (LLOQ) were 50 pg/mL (135 pmol/L) for SA and 10 pg/mL (33.74 pmol/L) for EE. The linear calibration range was 50.0 to 5000 pg/mL for SA and 10.0 to 1000 pg/mL for EE. The inter-assay coefficient of variation for SA was 7-15.5% and for EE 8-13% for low, medium, and high-quality control samples used during assays. The intra-assay coefficient of variation for both SA and EE was lower than 12%.

In the next data set the target is T1, progesterone receptor (Homo sapiens, UniProt P06401).
T1 sequence (P06401 1-933): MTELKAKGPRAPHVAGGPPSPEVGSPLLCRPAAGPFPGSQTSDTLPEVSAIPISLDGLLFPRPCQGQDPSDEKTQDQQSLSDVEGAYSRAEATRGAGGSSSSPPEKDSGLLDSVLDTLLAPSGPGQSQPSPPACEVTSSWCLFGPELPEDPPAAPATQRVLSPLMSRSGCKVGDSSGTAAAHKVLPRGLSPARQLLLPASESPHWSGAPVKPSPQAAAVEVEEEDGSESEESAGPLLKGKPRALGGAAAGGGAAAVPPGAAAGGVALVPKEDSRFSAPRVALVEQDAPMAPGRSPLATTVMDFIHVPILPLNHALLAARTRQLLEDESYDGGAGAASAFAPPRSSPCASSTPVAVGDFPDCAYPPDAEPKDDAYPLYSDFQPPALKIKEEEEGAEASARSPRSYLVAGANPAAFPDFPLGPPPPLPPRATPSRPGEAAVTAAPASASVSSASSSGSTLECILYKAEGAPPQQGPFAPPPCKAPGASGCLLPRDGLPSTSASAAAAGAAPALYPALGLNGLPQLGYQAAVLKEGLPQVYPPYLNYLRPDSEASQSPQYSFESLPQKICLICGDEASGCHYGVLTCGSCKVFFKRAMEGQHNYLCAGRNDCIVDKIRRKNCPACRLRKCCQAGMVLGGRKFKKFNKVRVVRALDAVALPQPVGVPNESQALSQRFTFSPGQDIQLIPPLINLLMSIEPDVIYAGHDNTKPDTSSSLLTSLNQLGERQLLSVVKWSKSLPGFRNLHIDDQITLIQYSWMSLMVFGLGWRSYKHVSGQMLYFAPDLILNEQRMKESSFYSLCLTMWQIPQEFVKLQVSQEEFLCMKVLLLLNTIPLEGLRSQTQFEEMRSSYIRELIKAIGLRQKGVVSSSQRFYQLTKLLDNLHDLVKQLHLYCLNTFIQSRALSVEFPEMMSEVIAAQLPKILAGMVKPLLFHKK
In words: Progesterone receptor activity of SA metabolites. It is filed as biochemical. From the text:
The hydroxylated EE metabolites have weak estrogenic activity.

[5] abbreviates: EE in serum, cycle 1, mean (SD).
[6] abbreviates: EE in serum, cycle 3, mean (SD).
[7] abbreviates: EE in serum, cycle 13, mean (SD).

Structures are written as SMILES.

By Cmax is commonly meant the highest concentration seen after dosing. Consider `C=C1C[C@H]2[C@@H]3CCC4=CC(=O)CC[C@@H]4[C@H]3CC[C@]2(C)[C@@]1(OC(C)=O)C(C)=O` [SA, 16-methylene-17α-acetoxy-19-nor-pregn-4-ene-3,20-dione], for which the “overall increase in exposure” value in data set [1] is given as no more than 32%. In addition, the “change in exposure from the vaginal system” value in data set [1] is “no change”. The “amount recoverable from the vaginal system” value in data set [2] was “remained essentially constant”. In addition, the “decrease in systemic exposure (AUC 0-21 day) between the two BMI groups” value in data set [3] is “up to 16%”. The AUC0-21 day is given as 259,740 pmol*hr/L in data set [4] (SA in serum, cycle 1, mean); 480,330 pmol*hr/L in data set [4] (SA in serum, cycle 3, mean); 127,440 pmol*hr/L in data set [4] (SA in serum, cycle 13, mean). Also, the Cavg in data set [4] (SA in serum, cycle 1, mean) worked out at 0.516 nM; in data set [4] (SA in serum, cycle 3, mean), 0.3537 nM; in data set [4] (SA in serum, cycle 13, mean), 0.254 nM. The Cmax is 3.1 nM in data set [4] (SA in serum, cycle 1, mean); 0.98 nM in data set [4] (SA in serum, cycle 3, mean); 0.794 nM in data set [4] (SA in serum, cycle 13, mean). Moreover, the AUC0-1 day in data set [4] (SA in serum, cycle 1, mean (SD)) is reported as 40,500 (8,640) pmol*hr/L; in data set [4] (SA in serum, cycle 3, mean (SD)) it was 36,450 (4,320) pmol*hr/L; in data set [4] (SA in serum, cycle 13, mean (SD)), 10,530 (3,780) pmol*hr/L.

For `C=C1CC2C3CCC4CC(=O)CCC4C3CCC2(C)C1(OC(C)=O)C(C)=O` (stereo not drawn) [5α-dihydro], the “EC50 to progesterone receptor, fold higher than that of SA” value on progesterone receptor is 10 fold.

As usually defined, the Tmax is the time from dosing to the highest level. `C#C[C@]1(O)CC[C@H]2[C@@H]3CCc4cc(O)ccc4[C@H]3CC[C@@]21C` [EE, 19-nor-17α-pregna-1,3,5(10)-trien-20-yne-3,17-diol]: the “overall increase in exposure” value in data set [1] is reported as “up to 67%”. Also, in data set [1], the “change in exposure from the vaginal system” value was “no change”. Besides, in data set [2] (cores before assembly, after extended storage), the “amount recoverable from the core by extraction” value is “full amount of EE was found to be recoverable”. Further, the “amount recoverable from the vaginal system” value in data set [2] is “decreased in a time-dependent manner”. Moreover, the “decrease in systemic exposure (AUC 0-21 day) between the two BMI groups” value in data set [3] was no more than 33%. Further, the Cavg was determined as 0.148 nM in data set [4] (EE in serum, cycle 1, mean); 0.098 nM in data set [4] (EE in serum, cycle 3, mean); 0.064 nM in data set [4] (EE in serum, cycle 13, mean). Besides, the Cmax in data set [4] (EE in serum, cycle 1, mean) was 0.435 nM; in data set [4] (female, human, serum, other: vaginal, EE in serum, cycle 3, mean) it was 0.202 nM; in data set [4] (female, human, serum, other: vaginal, EE in serum, cycle 13, mean), 0.131 nM. In addition, the AUC0-1 day in data set [4] (setting [5]) is listed as 7,077 (2,359) pmol*hr/L; in data set [4] (setting [6]), 3,033 (1,348) pmol*hr/L; in data set [4] (setting [7]), 2,359 (1,011) pmol*hr/L. Also, the AUC0-21 day in data set [4] (setting [5]) is 74,814 (33,026) pmol*hr/L; in data set [4] (setting [6]), 49,539 (15,839) pmol*hr/L; in data set [4] (setting [7]), 32,352 (13,817) pmol*hr/L. For the same compound, the Tmax in data set [4] (female, human, serum, vaginal administration, product-use cycles 1, 3 and 13, read-out: median Tmax) was roughly 2 h.

Values taken from patent publication US20240252428A1, “METHODS OF PROVIDING BIRTH CONTROL” (THE POPULATION COUNCIL, INC., priority 2021, published 2024).
